# Test results: PubChem BioAssay AID602437 (Southern Research Specialized Biocontainment Screening …, 2012)
# Where “and” joins values, the source holds several entries; their conditions need not be identical. Equal values may be shown once. Calls of active or inactive are those of the source. How the calls were made is not given here.
# Columns and labels:
# [1] = system: M. tuberculosis H37Rv growth inhibition, no glycerol; experiment: H37Rv growth blockers, purified and synthesized samples, set 8, confirmation (AID 602437); details: for IC50: measured here: IC50 replicates
# [2] = as above; details: M. tuberculosis H37Rv growth inhibition, no glycerol; at 100 µM (top of the series)
SMILES,IC50 [1],inhibition [2],IC90 [1] [µM]
CC1CCN(C(=O)c2ccc(CNc3c(N4CCCC4)c(=O)c3=O)cc2)CC1,10.1 µM,–,–
CCOc1ccc(NC(=O)c2ccc(CNc3c(N4CCCC4)c(=O)c3=O)cc2)cc1,–,-0.36% (inactive),–
O=C(C1CCC(CNc2c(N3CCCCC3)c(=O)c2=O)CC1)N1CCCCC1 (stereo not given),27.5 µM,–,–
COC(=O)CSc1ncnc2c1cnn2-c1ccc(C)cc1C,2.78 µM,–,3.71
CCOC(=O)N1CCC(Nc2c(Nc3cccc(CC)c3)c(=O)c2=O)CC1,36.5 µM,–,–
COc1ccc(N2CCN(C(=O)c3ccc(CNC(=O)NCc4ccc(Cl)cc4)cc3)CC2)cc1,–,2.39% (inactive),–
O=C(c1ccc(CNc2c(N3CCOCC3)c(=O)c2=O)cc1)N1CC=C(c2ccccc2)CC1,1.71 µM,–,8.36
CC(C)OC(=O)CSc1ncnc2c1cnn2-c1ccccc1,12 µM,–,–
CC1CCCN(C(=O)C2CCC(CNc3c(N4CCCCC4)c(=O)c3=O)CC2)C1 (stereo not given),34.9 µM,–,–
O=C(c1ccc(CNc2c(N3CCCC3)c(=O)c2=O)cc1)N1CC=C(c2ccccc2)CC1,4.52 µM and 4.4 µM,–,–
CC1CC(C)CN(C(=O)c2ccc(CNc3c(N4CCCC4)c(=O)c3=O)cc2)C1 (stereo not given),12.8 µM,–,–
O=C(CSc1nc2c(c(=O)[nH]1)CCC2)NC1CCCCC1,2.24 µM,–,3.23
COc1ccc(NC(=O)NCc2ccc(C(=O)N3CCC(c4ccccc4)CC3)cc2)cc1,–,14% (inactive),–
CC(=O)c1ccc(NC(=O)c2ccc(CNc3c(N4CCOCC4)c(=O)c3=O)cc2)cc1,63.7 µM,–,–
COc1ccc(N2CCN(C(=O)c3ccc(CNc4c(N5CCCC(C)C5)c(=O)c4=O)cc3)CC2)cc1 (stereo not given),25.4 µM,–,41.4
O=C(NCCc1ccc(Cl)cc1)C1CCC(CNc2c(N3CCCCC3)c(=O)c2=O)CC1 (stereo not given),17.6 µM,–,–
CCOC(=O)CSc1ncnc2c1cnn2-c1ccc(C)cc1C,2.64 µM,–,4.58
CC1CCCN(c2c(NCc3ccc(C(=O)N4CC=C(c5ccccc5)CC4)cc3)c(=O)c2=O)C1 (stereo not given),7.72 µM,–,9.7
O=C(NCc1ccc(C(=O)N2CCC(c3ccccc3)CC2)cc1)NC1CCCCC1,67.7 µM,–,86.4
COc1ccc(N2CCN(C(=O)c3ccc(CNc4c(N5CCOCC5)c(=O)c4=O)cc3)CC2)cc1,8.95 µM and 8.65 µM,–,–
CCOC(=O)CSc1ncnc2c1cnn2-c1ccccc1,4.02 µM,–,9.98
CCC(C)NC(=O)CSc1nc2ccccc2c(=O)[nH]1 (stereo not given),4.95 µM,–,7.63

SMILES,IC50 [1],inhibition [2],IC90 [1] [µM]
CC(C)CCNC(=O)CSc1nc2ccccc2c(=O)[nH]1,0.651 µM,–,1.01
O=C(NCCc1ccc(Cl)cc1)c1ccc(CNc2c(N3CCOCC3)c(=O)c2=O)cc1,5.66 µM and 14.4 µM,–,–
O=C(c1ccc(CNc2c(N3CCCC3)c(=O)c2=O)cc1)N1CCc2ccccc2C1,7.79 µM,–,–
O=C(c1ccc(CNc2c(N3CCOCC3)c(=O)c2=O)cc1)N1CCN(c2ccccc2)CC1,3.8 µM,–,–
Cc1cccc(N2CCN(C(=O)c3ccc(CNc4c(N5CCC(C)CC5)c(=O)c4=O)cc3)CC2C)c1 (stereo not given),27.7 µM,–,46.3
CC(C)CCNC(=O)CSc1nc2c(c(=O)[nH]1)CCCC2,4.43 µM,–,6.58
O=C(c1ccc(CNc2c(N3CCCC3)c(=O)c2=O)cc1)N1CCN(c2ccccc2)CC1,70.2 µM,–,–
CC1CCCN(C(=O)c2ccc(CNc3c(N4CCCCC4)c(=O)c3=O)cc2)C1 (stereo not given),5.73 µM,–,–
O=C(NCc1ccc(C(=O)N2CCC(c3ccccc3)CC2)cc1)Nc1ccc(Cl)cc1,72.2 µM,–,92.5
COC(=O)C(Cc1ccccc1)NC(=O)CSc1nc2ccccc2c(=O)[nH]1 (stereo not given),–,2.32% (inactive),–
COCCNC(=O)CSc1nc2ccccc2c(=O)[nH]1,–,-10.3% (inactive),–
O=C(CSc1nc2c(c(=O)[nH]1)CN(Cc1ccccc1)CC2)NC1CCCCC1,–,-4.57% (inactive),–
Cc1cccc(N2CCN(C(=O)c3ccc(CNc4c(N5CCC(C)CC5)c(=O)c4=O)cc3)CC2)c1C,42.1 µM,–,56.9
O=C(NCc1ccc(C(=O)N2CCN(c3ccccc3)CC2)cc1)NC1CCCCC1,–,2.51% (inactive),–
O=C(c1ccc(CNc2c(N3CCCC3)c(=O)c2=O)cc1)N1CCC(c2ccccc2)CC1,76.1 µM,–,–
O=C(CSc1nc2ccccc2c(=O)[nH]1)NC1CCCCC1,0.204 µM,–,< 0.27
O=C(CSc1nc2c(c(=O)[nH]1)CCCC2)NC1CCCCC1,2.3 µM,–,3.45
O=C(CSc1nc2ccccc2c(=O)[nH]1)NC1CCOCC1,20.5 µM,–,33.8
O=C(c1ccc(CNc2c(N3CCOCC3)c(=O)c2=O)cc1)N1CCC(c2ccccc2)CC1,3.56 µM,–,–
CC(C)CCNC(=O)CSc1nc2c(c(=O)[nH]1)CCCCC2,99.2 µM,–,–
CC1CC(C)CN(C(=O)C2CCC(CNc3c(N4CCCCC4)c(=O)c3=O)CC2)C1 (stereo not given),7.79 µM and 24.7 µM,–,–
